Results published in ChEMBL document CHEMBL4732046, “A red-light-activated sulfonamide porphycene for highly efficient photodynamic therapy against hypoxic tumor” (Eur J Med Chem, 2021).

Legend:
KYSE-70 cell line [1] = assay: Photocytotoxicity against human KYSE-70 cells assessed as reduction in cell viability irradiated with 640 +/- 15 nm red LED for 4 hrs measured after 24 hrs by MTT assay; assay type: functional, cell-based; conditions: KYSE-70, light or radiation study
HeLa [2] = assay: Cytotoxicity against human HeLa cells assessed as cell viability in dark measured after 24 hrs by MTT assay; assay type: functional, cell-based
HeLa [3] = assay: Photocytotoxicity against human HeLa cells assessed as reduction in cell viability irradiated with 640 +/- 15 nm red LED for 4 hrs measured after 24 hrs by MTT assay; assay type: functional, cell-based; conditions: light or radiation study
KYSE-70 cell line [4] = assay: Photocytotoxicity against human KYSE-70 cells assessed as reduction in cell viability irradiated with 640 +/- 15 nm red LED for 4 hrs measured after 24 hrs under hypoxic condition by MTT assay; assay type: functional, cell-based; conditions: KYSE-70, light or radiation study
A-375 [5] = assay: Photocytotoxicity against human A-375 cells assessed as reduction in cell viability irradiated with 640 +/- 15 nm red LED for 4 hrs measured after 24 hrs under hypoxic condition by MTT assay; assay type: functional, cell-based; conditions: A-375, light or radiation study
A-375 [6] = assay: Photocytotoxicity against human A-375 cells assessed as reduction in cell viability irradiated with 640 +/- 15 nm red LED for 4 hrs measured after 24 hrs by MTT assay; assay type: functional, cell-based; conditions: A-375, light or radiation study
B16 [7] = assay: Cytotoxicity against mouse B16 cells assessed as cell viability in dark measured after 24 hrs by MTT assay; assay type: functional, cell-based; conditions: B16, 24 h
B16 [8] = assay: Photocytotoxicity against mouse B16 cells assessed as reduction in cell viability irradiated with 640 +/- 15 nm red LED for 4 hrs measured after 24 hrs by MTT assay; assay type: functional, cell-based; conditions: B16, light or radiation study
HeLa [9] = assay: Photocytotoxicity against human HeLa cells assessed as reduction in cell viability irradiated with 640 +/- 15 nm red LED for 4 hrs measured after 24 hrs under hypoxic condition by MTT assay; assay type: functional, cell-based; conditions: light or radiation study
A-375 [10] = assay: Cytotoxicity against human A-375 cells assessed as cell viability in dark measured after 24 hrs by MTT assay; assay type: functional, cell-based; conditions: A-375, 24 h
B16 [11] = assay: Photocytotoxicity against mouse B16 cells assessed as reduction in cell viability irradiated with 640 +/- 15 nm red LED for 4 hrs measured after 24 hrs under hypoxic condition by MTT assay; assay type: functional, cell-based; conditions: B16, light or radiation study
KYSE-70 cell line [12] = assay: Cytotoxicity against human KYSE-70 cells assessed as cell viability in dark measured after 24 hrs by MTT assay; assay type: functional, cell-based; conditions: KYSE-70, 24 h
HeLa [13] = assay: Photo-therapeutic index, ratio of LD50 for photocytotoxicity against human HeLa cells assessed as reduction in cell viability irradiated with 640 +/- 15 nm red LED for 4 hrs measured after 24 hrs by MTT assay to LD50 for cytotoxicity against human HeLa cells assessed as cell viability in dark measured after 24 hrs by MTT assay; assay type: functional

For `CC/N=c1/cc2sc3cc(N(CC)CC)ccc3nc-2c2ccccc12`, the DC50 (KYSE-70 cell line [1]) was 0.305 µM, the DC50 (HeLa [2]) was 7 µM and the DC50 (HeLa [3]) was 0.095 µM. It also gave a DC50 (KYSE-70 cell line [4]) of 0.809 µM, a DC50 (A-375 [5]) of 1.3 µM and a DC50 (A-375 [6]) of 0.507 µM. For the same molecule, the DC50 (B16 [7]) was 11 µM, the DC50 (B16 [8]) was 0.93 µM and the DC50 (HeLa [9]) was 1.03 µM. For the same molecule, the DC50 (A-375 [10]) was 1 µM, the DC50 (B16 [11]) was 1.89 µM and the DC50 (KYSE-70 cell line [12]) was 4 µM.
Molecule `CC(C)(C)C1=Cc2nc1ccc1[nH]c(cc1C(C)(C)C)c1nc(ccc3[nH]c2cc3S(=O)(=O)NCCOCCO)C(S(=O)(=O)NCCOCCO)=C1` has a DC50 (KYSE-70 cell line [1]) of 0.005 µM, a DC50 (HeLa [2]) of 24 µM and a DC50 (HeLa [3]) of 0.069 µM. It also gave a DC50 (KYSE-70 cell line [4]) of 0.024 µM, a DC50 (A-375 [5]) of 0.057 µM and a DC50 (A-375 [6]) of 0.023 µM. For the same molecule, the DC50 (B16 [7]) was 57 µM, the Ratio (HeLa [13]) was 73 and the DC50 (B16 [8]) was 0.168 µM. It also gave a DC50 (HeLa [9]) of 0.329 µM, a DC50 (A-375 [10]) of 28 µM and a DC50 (B16 [11]) of 0.37 µM. The DC50 (KYSE-70 cell line [12]) was 28 µM.
